Experimental data: patent US11034710B2, “CDK9 inhibitors and polymorphs thereof for use as agents for treatment of cancer” (SUMITOMO DAINIPPON PHARMA ONCOLOGY, INC., priority 2018, dated 2021)
Values belong to the compound of their own block, whether it stands above or below them.

Experiments:
[1] = Phase I study: plasma pharmacokinetics of compound of structure (I) and alvocidib; type: in vivo, human
Description: Patients with advanced metastatic or progressive solid tumors who were refractory to, or intolerant of, established therapy known to provide clinical benefit for their condition were enrolled. Cohorts of 3-6 patients each received escalating doses of compound of structure (I) using a modified Fibonacci dose escalation approach. Once the optimal dose has been established, additional patients may be enrolled to confirm safety and to explore efficacy.
This is an ongoing Phase 1, open-label, dose-escalation, safety, PK and PD study. The proposed starting dose and schedule for oral compound of structure (I) was a 1-mg flat dose once daily (QD) for 14 days followed by a 7-day drug-free recovery period (each cycle=21 days). In the absence of dose-limiting toxicities (DLTs) in the first cohort of at least 3 patients, the dose was increased using a modified Fibonacci dose escalation scheme, and BID dosing commenced according to the dose escalation schedule described in Table 28. The first patient in cohort 6 has been enrolled at 8 mg compound of structure (I) BID. The baseline demographics of the first 14 patients enrolled in the study are described in Table 26.
Plasma PK parameters of compound of structure (I) and alvocidib were evaluated in Cohorts 1-5 at specific timepoints during the study. Blood was collected from patients in Cohorts 1-5 according to the pharmacokinetic sampling schedule described in Table 29.
PK parameters were estimated using standard noncompartmental methods. Actual sample collection times were used rather than scheduled collection times. Plasma concentrations below the limit of quantification were treated as 0. Imbedded missing plasma concentrations (e.g., missing values between two observed values) were estimated using linear […]. This is consistent with using the trapezoidal rule to calculate AUC. Other missing plasma concentrations were excluded from calculations to estimate PK parameters.

[2] = system: patients with advanced solid tumors; assay: Phase I study: safety, dose-limiting toxicities and treatment-emergent adverse events; type: in vivo, human
Description: Patients with advanced metastatic or progressive solid tumors who were refractory to, or intolerant of, established therapy known to provide clinical benefit for their condition were enrolled. Cohorts of 3-6 patients each received escalating doses of compound of structure (I) using a modified Fibonacci dose escalation approach. Once the optimal dose has been established, additional patients may be enrolled to confirm safety and to explore efficacy. This is an ongoing Phase 1, open-label, dose-escalation, safety, PK and PD study. The proposed starting dose and schedule for oral compound of structure (I) was a 1-mg flat dose once daily (QD) for 14 days followed by a 7-day drug-free recovery period (each cycle=21 days). In the absence of dose-limiting toxicities (DLTs) in the first cohort of at least 3 patients, the dose was increased using a modified Fibonacci dose escalation scheme, and BID dosing commenced according to the dose escalation schedule described in Table 28. The first patient in cohort 6 has been enrolled at 8 mg compound of structure (I) BID. The baseline demographics of the first 14 patients enrolled in the study are described in Table 26. […] DLT was defined as any one of the following events observed in cycle 1, regardless of investigator attribution, unless there was a clear alternative explanation: • 1. Grade 3 or greater febrile neutropenia • 2. Grade 4 neutropenia for ≥7 consecutive days • 3. Grade 4 thrombocytopenia or Grade 3 thrombocytopenia with clinically significant bleeding or that requires a platelet transfusion • 4. Grade 3 or 4 nonhematologic AEs will be considered dose limiting, regardless of duration aside from the specific parameters described herein • 5. Grade 4 nausea, vomiting, or diarrhea, regardless of duration • 6. […] Any Grade ≥3 elevations in creatinine • 10. Any Grade 5 toxicity

[3] = Four-week stability of Form B obtained using various Step 4.1 reaction conditions (40° C./75% RH, HPLC); type: physicochemical; details: 40° C. ± 2° C., 75 ± 5% RH, sealed vial
Description: The results of the stability study appear in Table 21.

[4] = Dynamic vapor sorption (DVS) test of amorphous Form A; type: physicochemical; details: 80% relative humidity
[5] = Stability study of amorphous Form A (decomposition to compound A-2); type: physicochemical
[6] = patients (% of N = 14), oral dosing, advanced solid tumors

- Tmax ([1]; Cohort 5, 6 mg BID oral Formulation No. 401-01, Cycle 1 Day 1, Mean of subjects 501-503): 60 min
- Tmax ([1]; Cohort 5, 6 mg BID oral Formulation No. 401-01, Cycle 1 Day 1, Subject 501): 30 min
- Tmax ([1]; Cohort 5, 6 mg BID oral Formulation No. 401-01, Cycle 1 Day 1, Subject 502): 120 min
- Tmax ([1]; Cohort 5, 6 mg BID oral Formulation No. 401-01, Cycle 1 Day 1, Subject 503): 30 min
- Tmax ([1]; Cohort 5, 6 mg BID oral Formulation No. 401-01, Cycle 1 Day 14, Mean of subjects 501-503): 60 min
- Tmax ([1]; Cohort 5, 6 mg BID oral Formulation No. 401-01, Cycle 1 Day 14, Subject 501): 30 min
- Tmax ([1]; Cohort 5, 6 mg BID oral Formulation No. 401-01, Cycle 1 Day 14, Subject 502): 120 min
- Tmax ([1]; Cohort 5, 6 mg BID oral Formulation No. 401-01, Cycle 1 Day 14, Subject 503): 30 min
Compound: CN1CC[C@H](c2c(O)cc(O)c3c(=O)cc(-c4ccccc4Cl)oc23)[C@H](O)C1 [alvocidib, 2-(2-chlorophenyl)-5,7-dihydroxy-8-[(3S,4R)-3-hydroxy-1-methylpiperidin-4-yl]chromen-4-one]

Compound: CN1CC[C@H](c2c(OP(=O)(O)O)cc(O)c3c(=O)cc(-c4ccccc4Cl)oc23)[C@H](O)C1 [compound of structure (I), 2-(2-chlorophenyl)-5-hydroxy-8-((3S,4R)-3-hydroxy-1-methylpiperidin-4-yl)-4-oxo-4H-chromen-7-yl dihydrogen phosphate]
- toxicity observed to date ([2]; oral, Cohorts to date, patients with advanced solid tumors): no unexplained toxicity, and no evidence of dose-limiting diarrhea or neutropenia
- Treatment-emergent adverse events grade ≥ 3: Anemia, Grade 3 [2, 6]: 1 (7%)
- Treatment-emergent adverse events grade ≥ 3: Chest Pain, Grade 3 [2, 6]: 1 (7%)
- Treatment-emergent adverse events grade ≥ 3: Haematuria, Grade 3 [2, 6]: 1 (7%)
- Treatment-emergent adverse events grade ≥ 3: Hypotension, Grade 3 [2, 6]: 1 (7%)
- Treatment-emergent adverse events grade ≥ 3: Hypoxia, Grade 3 [2, 6]: 1 (7%)
- Treatment-emergent adverse events grade ≥ 3: Malignant Pleural Effusion, Grade 3 [2, 6]: 1 (7%)
- Treatment-emergent adverse events grade ≥ 3: Pain, Grade 3 [2, 6]: 1 (7%)
- Treatment-emergent adverse events grade ≥ 3: Swelling, Grade 3 [2, 6]: 1 (7%)

- A-2 ([3]; 7 days ± 1 day): 6.6%
- HPLC Purity of A-5 ([3]; 7 days ± 1 day): 91.3%
- A-2 ([3]; 14 days ± 1 day): 13.7%
- HPLC Purity of A-5 ([3]; 14 days ± 1 day): 84.12%
- A-2 ([3]; 21 days ± 1 day): 19.0%
- HPLC Purity of A-5 ([3]; 21 days ± 1 day): 78.5%
- A-2 ([3]; 28 days ± 1 day): 22.2%
- HPLC Purity of A-5 ([3]; 28 days ± 1 day): 75.0%
- A-2 ([3]; Initial): 1.02%
- HPLC Purity of A-5 ([3]; Initial): 97.0%
Compound: CN1CCC(c2c(OP(=O)(O)O)cc(O)c3c(=O)cc(-c4ccccc4Cl)oc23)C(O)C1.Cl (stereo not shown) [Form A-11]

Compound: CN1CC[C@H](c2c(OP(=O)(O)O)cc(O)c3c(=O)cc(-c4ccccc4Cl)oc23)[C@H](O)C1 [Form A]
- weight of water taken in (DVS), hygroscopicity [4]: 12.5%
- decomposition ([5]; 40° C. and 75% relative humidity for one week): accelerated decomposition
- degradation to compound A-2 ([5]; after 10 days at room temperature): 6.85%
- degradant trends ([5]; stored at −20° C.): no degradant trends
- A-2 ([3]; 7 days ± 1 day): 0.88%
- HPLC Purity of A-5 ([3]; 7 days ± 1 day): 98.6%
- A-2 ([3]; 14 days ± 1 day): 2.2%
- HPLC Purity of A-5 ([3]; 14 days ± 1 day): 97.5%
- A-2 ([3]; Initial): 0.44%
- HPLC Purity of A-5 ([3]; Initial): 99.2%
